Laboratory results reported in patent US12115224B2, “Polypeptide conjugates for intracellular delivery of stapled peptides” (Ohio State Innovation Foundation, priority 2017, dated 2024).
“And” between values parts separate entries of the source, which are not always exact repeats. Identical values can stand only once. Numbered stars: 1 amine (or outer) side, 2 acyl side, 3 side chain; on linkers, the order of the positions; unused ones are H or OH. Bridge positions count the residues as written; N and C are the ends. Square brackets hold non-standard residues; d marks the D form. Peptide text beside a SMILES is read from it. I, II: the chains in the order shown. * marks the point of attachment. X2 = NC(=O)[C@H](CCCCNC(=O)c1cc(C[*:1])cc(C[*:2])c1)NC(=O)COCCOCCN[*:3]; X1 = O=C1OC2(c3ccc(C(=O)*)cc31)c1ccc3cc(O)ccc3c1Oc1c2ccc2cc(O)ccc12; X3 = NC(=O)[C@H](CCCCNC(=O)CON=C(C[*:1])C[*:2])NC(=O)COCCOCCN[*:3]; 2Nal = N[C@@H](Cc1ccc2ccccc2c1)C(=O)O; mXylylene = c1cc(C[*:1])cc(C[*:2])c1; NF = 5(6)-carboxynaphthofluorescein; hCys = N[C@@H](CCS)C(=O)O; K(NF) = not defined here; AEEA = NCCOCCOCC(=O)O; βAla = NCCC(=O)O

Key:
HeLa cells = test: Cytosolic entry efficiency of NF-labeled peptides by flow cytometry; conditions: NF-labeled peptide 5 μM, 2 h, 37° C., 10% FBS; relative to CPP9 (100%)
Experimental: Flow Cytometry. HeLa cells were seeded in 12-well plates at 1.5×10^5 cells per well for 24 h. The next day, naphthofluorescein-labelled peptide (5 μM) was added to the cells in DMEM medium supplemented with 10% fetal bovine serum (FBS) and 1% penicillin/streptomycin and the cells were incubated at 37° C. for 2 h in the presence of 5% CO2. The medium containing the peptide was removed and the cells were washed with DPBS twice. […] Data were analyzed using the Flowjo software (Tree Star).

MDM2 [1] = target: T1, MDM2 (Homo sapiens, UniProt Q00987); test: Direct binding of FITC-labeled peptides to MDM2 (KD); conditions: relative to the parent peptide
MDM2 [2] = target: T1, MDM2; test: Fluorescence anisotropy (FA)-based competition with FITC-labeled peptide 1 for binding to MDM2; conditions: unlabeled peptides 4 and 5
Text: Expression and Purification of GST-MDM2.

Molecule	Cellular Uptake (MFI^NF, %) (HeLa cells)	fold decrease of MDM2 binding affinity (MDM2 [1])	further results
NF-βA-NPECILDCHVQRVM-NH2 [18] ({NF-βAla}-NPECILDCHVQRVM-NH2; bridge 4-8; not fully specified (bridges)) [Peptide 18]	8.9% and 8.9 ± 2.9%		
CC(=O)N[C@@H](CC(C)C)C(=O)N[C@H](C(=O)N[C@@H](Cc1ccccc1)C(=O)N[C@H]1CCSCc2cc(cc(C(=O)NCCCC[C@H](NC(=O)COCCOCCNC(=O)CC[C@@H]3NC(=O)[C@@H](CCCNC(=N)N)NC(=O)[C@H](CCCNC(=N)N)NC(=O)[C@@H](CCCNC(=N)N)NC(=O)[C@H](CCCNC(=N)N)NC(=O)[C@H](Cc4ccc5ccccc5c4)NC(=O)[C@@H](Cc4ccccc4)NC3=O)C(N)=O)c2)CSCC[C@@H](C(=O)N[C@@H](CCC(N)=O)C(=O)N[C@@H](CC(C)C)C(=O)N[C@H](C(=O)N[C@@H](CO)C(=O)NCCOCCOCC(=O)N[C@@H](CCCCNC(=O)c2ccc3c(c2)C(=O)OC32c3ccc4cc(O)ccc4c3Oc3c2ccc2cc(O)ccc32)C(N)=O)[C@@H](C)O)NC(=O)[C@H](Cc2c[nH]c3ccccc23)NC(=O)[C@H](Cc2ccc(O)cc2)NC(=O)[C@H](Cc2c[nH]cn2)NC1=O)[C@@H](C)O [Peptide 9, Ac-LTFhCHYWhCQLTS-miniPEG-K(NF)-NH2] (I: Ac-LTF[hCys]HYW[hCys]QLTS[AEEA]K(X1)-NH2 / II: cyclo(R[dR]E[dF][2Nal]R[dR]); linker I:4-I:8-II:3 via X2)		~8 fold	
NF-βA-ENPECILDCHVQRVM-NH2 [16] ({NF-βAla}-ENPECILDCHVQRVM-NH2; bridge 5-9; not fully specified (bridges)) [Peptide 16]	2.5% and 2.5 ± 0.5%		
CC(=O)N[C@@H](CC(C)C)C(=O)N[C@H](C(=O)N[C@@H](Cc1ccccc1)C(=O)N[C@H]1CSCc2cccc(c2)CSC[C@@H](C(=O)N[C@@H](CCC(N)=O)C(=O)N[C@@H](CC(C)C)C(=O)N[C@H](C(=O)N[C@@H](CO)C(=O)NCCOCCOCC(=O)N[C@@H](CCCCNC(=O)c2ccc3c(c2)C(=O)OC32c3ccc4cc(O)ccc4c3Oc3c2ccc2cc(O)ccc32)C(N)=O)[C@@H](C)O)NC(=O)[C@H](Cc2c[nH]c3ccccc23)NC(=O)[C@H](Cc2ccc(O)cc2)NC(=O)[C@H](Cc2c[nH]cn2)NC1=O)[C@@H](C)O [Peptide 6] (Ac-LTFCHYWCQLTS[AEEA]K(X1)-NH2; linker 4-8 via mXylylene)		~2.5 fold	
CC(=O)N[C@@H](CC(C)C)C(=O)N[C@H](C(=O)N[C@@H](Cc1ccccc1)C(=O)N[C@H]1CCSCc2cccc(c2)CSCC[C@@H](C(=O)N[C@@H](CCC(N)=O)C(=O)N[C@@H](CC(C)C)C(=O)N[C@H](C(=O)N[C@@H](CO)C(=O)NCCOCCOCC(=O)N[C@@H](CCCCNC(=O)c2ccc3c(c2)C(=O)OC32c3ccc4cc(O)ccc4c3Oc3c2ccc2cc(O)ccc32)C(N)=O)[C@@H](C)O)NC(=O)[C@H](Cc2c[nH]c3ccccc23)NC(=O)[C@H](Cc2ccc(O)cc2)NC(=O)[C@H](Cc2c[nH]cn2)NC1=O)[C@@H](C)O [Peptide 8, Ac-LTFhCHYWhCQLTS-miniPEG-K(NF)-NH2] (Ac-LTF[hCys]HYW[hCys]QLTS[AEEA]K(X1)-NH2; linker 4-8 via mXylylene)			fold improvement of MDM2 binding affinity (MDM2 [1]): 5 fold
CC(=O)N[C@@H](CC(C)C)C(=O)N[C@H](C(=O)N[C@@H](Cc1ccccc1)C(=O)N[C@H]1CCSCC(=NOCC(=O)NCCCC[C@H](NC(=O)COCCOCCNC(=O)CC[C@@H]2NC(=O)[C@@H](CCCNC(=N)N)NC(=O)[C@H](CCCNC(=N)N)NC(=O)[C@@H](CCCNC(=N)N)NC(=O)[C@H](CCCNC(=N)N)NC(=O)[C@H](Cc3ccc4ccccc4c3)NC(=O)[C@@H](Cc3ccccc3)NC2=O)C(N)=O)CSCC[C@@H](C(=O)N[C@@H](CCC(N)=O)C(=O)N[C@@H](CC(C)C)C(=O)N[C@H](C(=O)N[C@@H](CO)C(=O)NCCOCCOCC(=O)N[C@@H](CCCCN)C(N)=O)[C@@H](C)O)NC(=O)[C@H](Cc2c[nH]c3ccccc23)NC(=O)[C@H](Cc2ccc(O)cc2)NC(=O)[C@H](Cc2c[nH]cn2)NC1=O)[C@@H](C)O [Peptide 5] (I: Ac-LTF[hCys]HYW[hCys]QLTS[AEEA]K-NH2 / II: cyclo([2Nal]R[dR]R[dR]E[dF]); linker I:4-I:8-II:6 via X3)			IC50 (MDM2 [2]): 201 nM
NF-βA-RKFCRLFC-NH2 [14] ({NF-βAla}-RKFCRLFC-NH2; bridge 4-8; not fully specified (bridges)) [Peptide 14]	47% and 47 ± 9%		
CC(=O)N[C@@H](CC(C)C)C(=O)N[C@H](C(=O)N[C@@H](Cc1ccccc1)C(=O)N[C@H]1CSCc2cc(cc(C(=O)NCCCC[C@H](NC(=O)COCCOCCNC(=O)CC[C@@H]3NC(=O)[C@@H](CCCNC(=N)N)NC(=O)[C@H](CCCNC(=N)N)NC(=O)[C@@H](CCCNC(=N)N)NC(=O)[C@H](CCCNC(=N)N)NC(=O)[C@H](Cc4ccc5ccccc5c4)NC(=O)[C@@H](Cc4ccccc4)NC3=O)C(N)=O)c2)CSC[C@@H](C(=O)N[C@@H](CCC(N)=O)C(=O)N[C@@H](CC(C)C)C(=O)N[C@H](C(=O)N[C@@H](CO)C(=O)NCCOCCOCC(=O)N[C@@H](CCCCNC(=O)c2ccc3c(c2)C(=O)OC32c3ccc4cc(O)ccc4c3Oc3c2ccc2cc(O)ccc32)C(N)=O)[C@@H](C)O)NC(=O)[C@H](Cc2c[nH]c3ccccc23)NC(=O)[C@H](Cc2ccc(O)cc2)NC(=O)[C@H](Cc2c[nH]cn2)NC1=O)[C@@H](C)O [Peptide 7] (I: Ac-LTFCHYWCQLTS[AEEA]K(X1)-NH2 / II: cyclo([2Nal]R[dR]R[dR]E[dF]); linker I:4-I:8-II:6 via X2)		~2 fold	
Ac-ETFCHYWCQLTS-miniPEG-K(NF)-NH2 (Ac-ETFCHYWCQLTS-{miniPEG-K(NF)-NH2}; linker 4-8 via xylene; reading uncertain; also: printed as Ac-ETFCHYWCQLTS-miniPEG-K(NF)-NH2) [Peptide 10]	2.8% and 2.8 ± 0.1%		
CC(=O)N[C@@H](CCC(=O)O)C(=O)N[C@H](C(=O)N[C@@H](Cc1ccccc1)C(=O)N[C@H]1CSCc2cc(cc(C(=O)NCCCC[C@H](NC(=O)COCCOCCNC(=O)CC[C@@H]3NC(=O)[C@@H](CCCNC(=N)N)NC(=O)[C@H](CCCNC(=N)N)NC(=O)[C@@H](CCCNC(=N)N)NC(=O)[C@H](CCCNC(=N)N)NC(=O)[C@H](Cc4ccc5ccccc5c4)NC(=O)[C@@H](Cc4ccccc4)NC3=O)C(N)=O)c2)CSC[C@@H](C(=O)N[C@@H](CCC(N)=O)C(=O)N[C@@H](CC(C)C)C(=O)N[C@H](C(=O)N[C@@H](CO)C(=O)NCCOCCOCC(=O)N[C@@H](CCCCNC(=O)c2ccc3c(c2)C(=O)OC32c3ccc4cc(O)ccc4c3Oc3c2ccc2cc(O)ccc32)C(N)=O)[C@@H](C)O)NC(=O)[C@H](Cc2c[nH]c3ccccc23)NC(=O)[C@H](Cc2ccc(O)cc2)NC(=O)[C@H](Cc2c[nH]cn2)NC1=O)[C@@H](C)O [Peptide 11] (I: Ac-ETFCHYWCQLTS[AEEA]K(X1)-NH2 / II: cyclo([2Nal]R[dR]R[dR]E[dF]); linker I:4-I:8-II:6 via X2)		6 fold	
